Legend:
HT-1080 fibrosarcoma = assay: HT-1080 Tumor Xenograft Model; assay type: in vivo, mouse; conditions: 0.3 or 1.0 mg/kg, i.p.
Source text: FIG. 9. […] (A) Systemic Portimine A in MC38 Syngeneic Tumor Xenograft Model; and (B) Systemic Portimine A in HT-1080 Tumor Xenograft Model.
Preliminary cell-based target engagement studies, based on compound washout, indicates PA is fast acting with <1 hr of exposure resulting in minimal loss of potency. Cmax-driven pharmacology and facile synthetic access to material enabled the evaluation of PA in both a syngeneic (MC38 colon carcinoma) and a human metastatic mesenchymal (HT-1080 fibrosarcoma) mouse tumor xenograft model. […] Metabolic stability represents an opportunity for an additional IP position.
• 1) Portimine A and its functional analogs show stereo-selective acute toxicity in cancer cells (FIG. 1). […] (B) Structure of portimine related analogs: phenyl-portimine A (Ph-PA, 36) and epi-portimine A (ePA, 38). Structure of fully functionalized portimine A-based epimeric probe pair: portimine A-diazirine-alkyne (PA-DA, 35-2) and epi-portimine A-diazirine-alkyne (ePA-DA, 35-1). (C) Cell viability analysis of portimine A and analogs. Jurkat cells were treated with increasing concentrations of portimine A and analogs for 24 hours. All presented data as mean of biological replicated experiments (n=3). […] Jurkat cells were treated with portimine A or analogs for 12 hours at 10 nM. […]

MCF-7 = assay: Broad cell line profiling, MCF-7; assay type: cell-based; conditions: Homo sapiens, MCF7; MCF-7, Breast Adenocarcinoma; read-out: PA IC50
Source text: • A panel of human and mouse cancer cell types used to assess the breadth of PA activity, including multiple therapy resistant metastatic mesenchymal tumor cell lines and primary glioblastoma patient-derived metastatic stem/tumor initiating cell populations.

With C=CC1=C[C@@H]2[C@@H]3O[C@]4(CC[C@H](O4)C(C)C[C@@H](O)C3=O)CC(O)C3=NCC[C@@]32CC1 (some centres unmarked) [PA, portimine A] the “anti-tumor activity, HT-1080 fibrosarcoma xenograft model” value (HT-1080 fibrosarcoma) was “Potent anti-tumor activity” and the IC50 (MCF-7) was 0.77 nM.
